Where a name gives a salt, the structure may show the parent alone. Read-outs that look alike come from different tables or passages of the source.
How the values were obtained:
[1] = solid stored at 80° C. for 20 h
Protocol: 50 mg of the respective salts were weighed separately into volumetric flasks (100 ml) and stored at 80° C. for 20 h.

[2] = for total impurities relative to the clopidogrel base: alkaline, 1N NaOH, 5 h
Protocol: 50 mg of the respective salts were separately weighed into volumetric flasks (100 ml), and 2 ml of 1N NaOH were added. The flasks were then stored either at room temperature for 5 h or at 80° C. for 5 h. After the end of the particular experiment and, where appropriate, cooling to room temperature, 2 ml of 1N HCl were added to each flask, and the volume was made up to 100 ml with the mobile phase.

[3] = acidic, 1N HCl, 5 h
[4] = neutral, water, 5 h
[5] = oxidizing, 5 h
[6] = Decrease in active ingredient content of adsorbates on storage at 40° or 60° C. and 75% relative humidity for 15 days; type: physicochemical
Description: The results are summarized in Table 5 below (content after 15 days (initial level standardized at 100%)).

[7] = 40° and 60° C., 75% relative humidity, 15 days
[8] = overall, in particular at room temperature
[9] = room temperature, hydrochloride

Row | Compound | impurities by HPLC after heat [1] [%] | total impurities relative to the clopidogrel base ([2]; 80° C.) [%] | total impurities relative to the clopidogrel base ([2]; room temperature) [%] | total impurities relative to the clopidogrel base ([3]; 80° C.) [%] | total impurities relative to the clopidogrel base ([3]; room temperature) [%] | total impurities relative to the clopidogrel base ([4]; 80° C.) [%] | total impurities relative to the clopidogrel base ([4]; room temperature) [%] | total impurities relative to the clopidogrel base ([5]; 3% H2O2, 80° C.) [%] | total impurities relative to the clopidogrel base ([5]; 3% H2O2, room temperature) [%] | other results
1 | COC(=O)[C@H](c1ccccc1Cl)N1CCc2sccc2C1 [Clopidogrel Hydrochloride, clopidogrel hydrochloride, reference compound] |  |  |  |  |  |  |  |  |  | impurities by HPLC after heat ([1]; hydrochloride): 32.43%; total impurities relative to the clopidogrel base ([2]; 80° C., hydrochloride): 72.89%; total impurities relative to the clopidogrel base [2, 9]: 1.86%; total impurities relative to the clopidogrel base ([3]; 80° C., hydrochloride): 3.31%; total impurities relative to the clopidogrel base [3, 9]: 1.86%; total impurities relative to the clopidogrel base ([4]; 80° C., hydrochloride): 4.33%; total impurities relative to the clopidogrel base [4, 9]: 1.84%; total impurities relative to the clopidogrel base ([5]; 3% H2O2, 80° C., hydrochloride): 4.16%; total impurities relative to the clopidogrel base ([5]; 3% H2O2, room temperature, hydrochloride): 1.83%
2 | COC(=O)[C@H](c1ccccc1Cl)N1CCc2sccc2C1 [Clopidogrel Hydrogensulfate, clopidogrel hydrogensulfate, reference compound] | 0.31 | 59.48 | 0.32 | 2.96 | 0.32 | 1.63 | 0.40 | 3.50 | 0.33 | 
3 | Clopidogrel besylate [Pure (free) salt] |  |  |  |  |  |  |  |  |  | content after 15 days (initial level standardized at 100%) ([6]; 40° C.): 103.32%; content after 15 days (initial level standardized at 100%) ([6]; 60° C.): 66.48%
4 | clopidogrel benzenesulfonate [Clopidogrel Benzenesulfonate (Amorphous)] | 11.52 | 25.04 | 0.64 | 2.36 | 0.64 | 3.01 | 0.85 | 2.94 | 0.83 | stability compared with the hydrogensulfate and hydrochloride salts ([2]; alkaline conditions): considerably higher
5 | clopidogrel benzenesulfonate [Clopidogrel Benzenesulfonate (Crystalline)] | 4.52 | 28.05 | 0.14 | 2.76 | 0.14 | 4.18 | 0.19 |  |  | stability (decrease in content) compared with hydrogensulfate and hydrochloride [7]: best stability; stability compared with clopidogrel hydrogensulfate [8]: more stable

From patent US20050203122A1, “Benzenesulfonic acid salts of clopidogrel, methods for preparing same, and pharmaceutical formulations thereof” (Helm AG, priority 2003, published 2005)
